# Measured values: patent publication US20210308061A1, “PHARMACEUTICAL COMPOSITIONS WITH A CDC7 INHIBITOR” (TAKED PHARMACEUTICAL COMPANY LIMITED, priority 2018, published 2021)
# Assay: Powder flowability (flow factor FFc), FT4 powder rheometer
# Type: physicochemical
# Conditions: Compound 1 alone
# Description: For the simulation of the DG process, compression pressure was adjusted to produce ribbon of different porosity. The flowability and compressibility of either preblend or milled ribbon was measured to evaluate the manufacturability of each formulation on the DC and the DG processes. The peak force value of compression and the vertical projection area of tooling were used to calculate the maximum compression pressure (CP). Powder flowability (i.e., flow factor (FFc)) was measured using the FT4 powder rheometer with the characterization method of 3 kPa pre-consolidation and 10 ml filling volume (Freeman Technology, Tewkesbury UK). This method was applied because it was representative of powder flow scenarios in most pharmaceutical manufacturing processes. The true density of powder was measured using the AccuPyc 1340 pycnometer (Micrometrics, Norcross Ga. USA) to calculate porosity of the ribbon.
smiles,measurement,value
"Cc1[nH]ncc1-c1cc2nc([C@@H]3CC4CCN3CC4)[nH]c(=O)c2s1 [Compound 1, 2-[(2S)-1-azabicyclo[2.2.2]oct-2-yl]-6-(3-methyl-1H-pyrazol-4-yl)thieno[3,2-d]pyrimidin-4(3H)-one]",flow factor,about 2.3
